Reference: the NIST ThermoML archive (doi:10.1007/s10765-009-0602-6)

Experiment: molar heat capacity at constant volume; xn = mol fraction of the nth substance listed
Settings: x1 = 0.2607

N [ammonia] + O
Settings | molar heat capacity at constant volume [J/K/mol]
581.09 K, Fluid (supercritical or subcritical phases), Mass density=476.25 kg/m3, isochoric heat capacity | 67.71
581.18 K, Fluid (supercritical or subcritical phases), Mass density=476.25 kg/m3, isochoric heat capacity | 67.34
581.36 K, Fluid (supercritical or subcritical phases), Mass density=476.25 kg/m3, isochoric heat capacity | 66.28
581.54 K, Fluid (supercritical or subcritical phases), Mass density=476.25 kg/m3, isochoric heat capacity | 66.75
581.62 K, Fluid (supercritical or subcritical phases), Mass density=476.25 kg/m3, isochoric heat capacity | 66.08
584.62 K, Fluid (supercritical or subcritical phases), Mass density=476.25 kg/m3, isochoric heat capacity | 65.81
584.71 K, Fluid (supercritical or subcritical phases), Mass density=476.25 kg/m3, isochoric heat capacity | 65.01
584.8 K, Fluid (supercritical or subcritical phases), Mass density=476.25 kg/m3, isochoric heat capacity | 64.64
584.88 K, Fluid (supercritical or subcritical phases), Mass density=476.25 kg/m3, isochoric heat capacity | 65.32
584.95 K, Fluid (supercritical or subcritical phases), Mass density=456.58 kg/m3, isochoric heat capacity | 82.04
584.95 K, Liquid, Isochoric heat capacity | 82.04
584.97 K, Fluid (supercritical or subcritical phases), Mass density=476.25 kg/m3, isochoric heat capacity | 65.26
584.98 K, Fluid (supercritical or subcritical phases), Mass density=456.58 kg/m3, isochoric heat capacity | 80.98
585.15 K, Fluid (supercritical or subcritical phases), Mass density=476.25 kg/m3, isochoric heat capacity | 64.62
585.16 K, Fluid (supercritical or subcritical phases), Mass density=456.58 kg/m3, isochoric heat capacity | 80.57
585.31 K, Fluid (supercritical or subcritical phases), Mass density=120.03 kg/m3, isochoric heat capacity | 115.43
585.31 K, Liquid, Isochoric heat capacity | 115.43
585.34 K, Fluid (supercritical or subcritical phases), Mass density=120.03 kg/m3, isochoric heat capacity | 110.25
585.4 K, Fluid (supercritical or subcritical phases), Mass density=120.03 kg/m3, isochoric heat capacity | 96.96
585.42 K, Fluid (supercritical or subcritical phases), Mass density=456.58 kg/m3, isochoric heat capacity | 79.9
585.48 K, Fluid (supercritical or subcritical phases), Mass density=120.03 kg/m3, isochoric heat capacity | 94.87
585.5 K, Fluid (supercritical or subcritical phases), Mass density=456.58 kg/m3, isochoric heat capacity | 80.27
585.62 K, Fluid (supercritical or subcritical phases), Mass density=120.03 kg/m3, isochoric heat capacity | 76.93
585.68 K, Fluid (supercritical or subcritical phases), Mass density=456.58 kg/m3, isochoric heat capacity | 78.28
585.94 K, Fluid (supercritical or subcritical phases), Mass density=120.03 kg/m3, isochoric heat capacity | 64.29
586.02 K, Fluid (supercritical or subcritical phases), Mass density=120.03 kg/m3, isochoric heat capacity | 59.53
586.11 K, Fluid (supercritical or subcritical phases), Mass density=120.03 kg/m3, isochoric heat capacity | 58.12
586.2 K, Fluid (supercritical or subcritical phases), Mass density=120.03 kg/m3, isochoric heat capacity | 53.99
586.28 K, Fluid (supercritical or subcritical phases), Mass density=120.03 kg/m3, isochoric heat capacity | 54.52
586.37 K, Fluid (supercritical or subcritical phases), Mass density=120.03 kg/m3, isochoric heat capacity | 51.14
587.06 K, Fluid (supercritical or subcritical phases), Mass density=456.58 kg/m3, isochoric heat capacity | 75.4
587.24 K, Fluid (supercritical or subcritical phases), Mass density=456.58 kg/m3, isochoric heat capacity | 75.97
587.41 K, Fluid (supercritical or subcritical phases), Mass density=456.58 kg/m3, isochoric heat capacity | 75.31
587.5 K, Fluid (supercritical or subcritical phases), Mass density=456.58 kg/m3, isochoric heat capacity | 74.46
587.58 K, Fluid (supercritical or subcritical phases), Mass density=456.58 kg/m3, isochoric heat capacity | 76.18
594.14 K, Fluid (supercritical or subcritical phases), Mass density=147.43 kg/m3, isochoric heat capacity | 103.92
594.14 K, Liquid, Isochoric heat capacity | 103.92
594.15 K, Fluid (supercritical or subcritical phases), Mass density=147.43 kg/m3, isochoric heat capacity | 93.04
594.23 K, Fluid (supercritical or subcritical phases), Mass density=147.43 kg/m3, isochoric heat capacity | 91.23
594.32 K, Fluid (supercritical or subcritical phases), Mass density=147.43 kg/m3, isochoric heat capacity | 82.61
594.49 K, Fluid (supercritical or subcritical phases), Mass density=147.43 kg/m3, isochoric heat capacity | 80.43
594.58 K, Fluid (supercritical or subcritical phases), Mass density=120.03 kg/m3, isochoric heat capacity | 43.51
594.58 K, Fluid (supercritical or subcritical phases), Mass density=147.43 kg/m3, isochoric heat capacity | 67.31
594.66 K, Fluid (supercritical or subcritical phases), Mass density=120.03 kg/m3, isochoric heat capacity | 46.88
594.66 K, Fluid (supercritical or subcritical phases), Mass density=147.43 kg/m3, isochoric heat capacity | 62.24
594.75 K, Fluid (supercritical or subcritical phases), Mass density=120.03 kg/m3, isochoric heat capacity | 46.35
594.75 K, Fluid (supercritical or subcritical phases), Mass density=147.43 kg/m3, isochoric heat capacity | 60.82
594.78 K, Fluid (supercritical or subcritical phases), Mass density=120.03 kg/m3, isochoric heat capacity | 43.67
594.84 K, Fluid (supercritical or subcritical phases), Mass density=147.43 kg/m3, isochoric heat capacity | 66.35
594.92 K, Fluid (supercritical or subcritical phases), Mass density=147.43 kg/m3, isochoric heat capacity | 53.4
595.01 K, Fluid (supercritical or subcritical phases), Mass density=120.03 kg/m3, isochoric heat capacity | 47.77
595.09 K, Fluid (supercritical or subcritical phases), Mass density=147.43 kg/m3, isochoric heat capacity | 56.72
595.1 K, Fluid (supercritical or subcritical phases), Mass density=456.58 kg/m3, isochoric heat capacity | 70.87
595.16 K, Fluid (supercritical or subcritical phases), Mass density=376.89 kg/m3, isochoric heat capacity | 99.09
595.16 K, Liquid, Isochoric heat capacity | 99.09
595.18 K, Fluid (supercritical or subcritical phases), Mass density=147.43 kg/m3, isochoric heat capacity | 52.64
595.18 K, Fluid (supercritical or subcritical phases), Mass density=376.89 kg/m3, isochoric heat capacity | 96.84
595.18 K, Fluid (supercritical or subcritical phases), Mass density=456.58 kg/m3, isochoric heat capacity | 70.11
595.27 K, Fluid (supercritical or subcritical phases), Mass density=376.89 kg/m3, isochoric heat capacity | 95.54
595.35 K, Fluid (supercritical or subcritical phases), Mass density=456.58 kg/m3, isochoric heat capacity | 71.12
595.44 K, Fluid (supercritical or subcritical phases), Mass density=147.43 kg/m3, isochoric heat capacity | 50.03
595.44 K, Fluid (supercritical or subcritical phases), Mass density=376.89 kg/m3, isochoric heat capacity | 96.07
595.44 K, Fluid (supercritical or subcritical phases), Mass density=456.58 kg/m3, isochoric heat capacity | 68.76
595.53 K, Fluid (supercritical or subcritical phases), Mass density=376.89 kg/m3, isochoric heat capacity | 92.7
595.53 K, Fluid (supercritical or subcritical phases), Mass density=456.58 kg/m3, isochoric heat capacity | 71.34
595.61 K, Fluid (supercritical or subcritical phases), Mass density=376.89 kg/m3, isochoric heat capacity | 94.85
595.61 K, Fluid (supercritical or subcritical phases), Mass density=456.58 kg/m3, isochoric heat capacity | 68.53
595.7 K, Fluid (supercritical or subcritical phases), Mass density=147.43 kg/m3, isochoric heat capacity | 52.76
595.7 K, Fluid (supercritical or subcritical phases), Mass density=456.58 kg/m3, isochoric heat capacity | 70.96
595.78 K, Fluid (supercritical or subcritical phases), Mass density=376.89 kg/m3, isochoric heat capacity | 89.45
595.87 K, Fluid (supercritical or subcritical phases), Mass density=376.89 kg/m3, isochoric heat capacity | 91.17
595.96 K, Fluid (supercritical or subcritical phases), Mass density=376.89 kg/m3, isochoric heat capacity | 88.44
597.16 K, Fluid (supercritical or subcritical phases), Mass density=376.89 kg/m3, isochoric heat capacity | 87.9
597.35 K, Fluid (supercritical or subcritical phases), Mass density=160.07 kg/m3, isochoric heat capacity | 101.99
597.36 K, Liquid, Isochoric heat capacity | 101.99
597.38 K, Fluid (supercritical or subcritical phases), Mass density=160.07 kg/m3, isochoric heat capacity | 81.69
597.43 K, Fluid (supercritical or subcritical phases), Mass density=160.07 kg/m3, isochoric heat capacity | 69.47
597.5 K, Fluid (supercritical or subcritical phases), Mass density=376.89 kg/m3, isochoric heat capacity | 85.95
597.53 K, Fluid (supercritical or subcritical phases), Mass density=160.07 kg/m3, isochoric heat capacity | 62.62
597.56 K, Fluid (supercritical or subcritical phases), Mass density=342.18 kg/m3, isochoric heat capacity | 110.99
597.56 K, Liquid, Isochoric heat capacity | 110.99
